Data on 14 molecules can be found in PMC9138090, “Study on the Neuroprotective, Radical-Scavenging and MAO-B Inhibiting Properties of New Benzimidazole Arylhydrazones as Potential Multi-Target Drugs for the Treatment of Parkinson’s Disease” (Antioxidants, 2022).

The nature of series [1]: MTT cytotoxicity on SH-SY5Y cells. It counts as cell-based, human. As to conditions: human, SH-SY5Y neuroblastoma cells, MTT test, 24 h incubation; read-out: IC50, in vitro cytotoxicity on SH-SY5Y cells. As to the method:
(§1) Human neuroblastoma cell line SH-SY5Y was obtained from the European Collection of Cell Cultures (ECACC, Salisbury, UK). The cells were maintained in 75 cm^2 flasks at 37 °C in a humidified atmosphere with 5% CO2 and cultured in RPMI 1640 medium, supplemented with 10% fetal bovine serum and 2 mM L-glutamine.
(§2) MTT (Sigma-Aldrich Chemie GmbH, Schnelldorf, Germany) assay is based on interaction between tetrazolium dye 3-(4,5-dimethylthiazol-2-yl)-2,5-diphenyltetrazolium bromide and succinic dehydrogenase in the living cells’ mitochondria. In this reaction, the formed purple formazan crystals indicate the presence of viable cells. SH-SY5Y cells were seeded in 96-well microplates at a density 2.5 × 10^4 cells/well and allowed to attach to the well surface at 37 °C in a humidified atmosphere with 5% CO2 (24 h). Different concentrations of compounds ([…]) were added to cells and incubated for 24 h. For each concentration, a set of at least 8 wells were used. After the treatment, the solution in each well was substituted with MTT (3-(4,5-dimethylthiazol-2-yl)-2,5-diphenyltetrazolium bromide) solution (0.5 mg/mL in culture medium). The microplates were further incubated for 3 h at 37 °C and the obtained formazan crystals were dissolved by 100 µL/well of DMSO. The absorbance was measured in a multiplate reader Synergy 2 (BioTek Instruments, Inc, Highland Park, Winooski, VT, USA) at 570 nm (690 nm for background absorbance).
(§3) An important step in the development of new pharmacologically active compounds is the establishment of their safety profile. An in vitro toxicity evaluation was carried out on the neuroblastoma cell line SH-SY5Y, which is a well-established model in neuroscience. The neuroblastoma SH-SY5Y are human derived cells with relatively homogeneous neuroblast-like structure. The cells express a dopamine-β-hydroxylase and tyrosine hydroxylase enzyme activity, specific types of human proteins and protein isoforms. The possible neurotoxic effects of the potential drug candidates were measured by cell viability assay (MTT-test). The IC50 values were used as a robust parameter for comparison. The test compounds were dissolved in DMSO and serially diluted in cell culture medium to achieve final concentrations ranging from 1 to 500 µM; the culture medium containing DMSO in the corresponding concentration was used as untreated controls. A concentration dependent effect on cell viability was observed after 24 h incubation.
Background: Tetrazolium assays rely on reduction of a dye to a coloured formazan, in cell work by metabolically active cells.

The nature of series [2]: Fe(II)-induced oxidative damage of lecithin (TBA-RS). The following applies: 90 µmol/L; for sample/control absorbance ratio (% of the control), lecithin peroxidation: lecithin 1 mg/mL, FeCl2 0.1 mmol/L. The method, then:
The classical method of determining the TBA-reactive substances at 532 nm as described by Asakawa and Matsushita has been used. Two groups of measurement compositions named controls and samples were prepared in phosphate buffer (K2HPO4/KH2PO4, pH 7.4) for each of the used substrates. Both of them contained equivalent concentrations of lecithin (1 mg/mL) or 2-deoxyribose (0.5 mmol/L) and FeCl2 (0.1 mmol/L). In the controls, the tested hydrazones have been omitted and in the samples the effect of the newly designed compounds at the concentrations indicated below the figures has been determined. The obtained samples were incubated at 37 °C for 30 min. The reaction was stopped, and after adding 0.5 mL 2.8% trichloroacetic acid and 0.5 mL of thiobarbituric acid, the samples were heated in boiling water for 20 min. The lecithin containing samples were centrifuged at 3000 rpm for 20 min and the supernatant was aspired out. The results have been presented as a percentage of the control sample, treated only with ferrous iron where we expected maximum oxidative damage under the described conditions.

For series [3], the system named is SH-SY5Y cells. Kind of series: MTT cytotoxicity on SH-SY5Y cells. As to conditions: MTT test, 24 h incubation; read-out: IC50, in vitro cytotoxicity on SH-SY5Y cells. The format is cell-based, human. As to the method:
as §1, §2, §3

Series [4] concerns the target T1, human recombinant MAO-B (hMAO-B) enzyme (Homo sapiens, UniProt P27338).
T1 construct: purchased Invitrogen, USA
T1 sequence (P27338 1-520): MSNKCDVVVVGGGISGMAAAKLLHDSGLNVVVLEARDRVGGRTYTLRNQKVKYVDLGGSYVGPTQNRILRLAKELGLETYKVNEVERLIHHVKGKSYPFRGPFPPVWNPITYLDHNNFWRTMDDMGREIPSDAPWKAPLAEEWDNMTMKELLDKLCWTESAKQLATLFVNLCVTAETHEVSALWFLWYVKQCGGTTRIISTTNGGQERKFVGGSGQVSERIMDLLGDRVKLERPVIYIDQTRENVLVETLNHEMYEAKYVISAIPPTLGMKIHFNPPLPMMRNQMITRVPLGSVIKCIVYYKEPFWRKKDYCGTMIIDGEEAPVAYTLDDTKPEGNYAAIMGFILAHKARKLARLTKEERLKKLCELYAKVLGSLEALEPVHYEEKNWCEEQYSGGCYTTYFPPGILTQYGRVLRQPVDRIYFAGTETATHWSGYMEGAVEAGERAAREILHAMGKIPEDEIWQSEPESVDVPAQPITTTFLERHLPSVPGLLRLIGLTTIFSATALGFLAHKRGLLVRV
The series is described as follows: hMAO-B activity, Amplex UltraRed fluorometric method. The format is biochemical. As to conditions: 1 µM. The method, then: The effects of the test compounds on human recombinant MAO-B (hMAO-B) enzyme were studied by the Amplex UltraRed reagent (Sigma-Aldrich Chemie GmbH) fluorometric method with small modifications. The working solutions of the compounds, reagents, hMAO-B, and reaction buffers were prepared according to the producer’s instructions. The tyramine hydrochloride was used as a substrate. The reaction mixture contained a stock solution of Amplex Red (10 mM in dimethyl sulfoxide), the reaction buffer (0.05 M sodium phosphate) at pH 7.4, and the storage solution of horseradish peroxidase (10 U/mL). There were pure MAO-B working solutions in the reaction buffer and MAO-B working solution containing hydrogen peroxide as controls. The final concentration of the test compounds in the well was 1 μM. The compounds together with hMAO-B were embedded in a 96-well plate (8 wells for each compound), and then the plate was incubated for 30 min (dark, at 37 °C). Thereafter, the reaction was initiated by 50 μL Mix Solution: Amplex®Red reagent, horseradish peroxidase, and tyramine as an enzyme substrate in the reaction buffer. The fluorescence was measured every 30 min at 0, 30, 60, 90, 120, and 150 min), in dark, while shaking the reaction mixture at constant temperature of 37 °C. The fluorimetric measurements were assessed using a Synergy 2 Microplate Reader.
Monoamine oxidase B catalyzes dopamine metabolism and oxidation leading to the formation of reactive oxygen species and reactive quinones, which provoke dopamine neurotoxicity and neurodegeneration. In the next experiments, the compounds showing the best safety profile and the most promising neuroprotective activity (3d, 3e, 3h, 3i, 3m, 3n, 3p) were evaluated for their potential inhibitory activity on hMAOB. Selegiline and rasagiline as potent MAO-B inhibitors were used as standard compounds for comparison.

Turning to `O=C(CCn1c(=S)n(CCC(=O)N/N=C/c2ccccc2)c2ccccc21)N/N=C/c1ccccc1` [3a], the melting point (commonly the temperature, or range, at which the solid turns liquid) was 246 to 248 °C. In addition, the IC50 (usually the midpoint of a concentration-inhibition curve) at 24 h in series [1] was 103 µM. For the same molecule, the “sample/control absorbance ratio (% of the control), lecithin peroxidation” value in series [2] is reported as 66.52%.

In turn, `COc1cc(C=NNC(=O)CCn2c(=S)n(CCC(=O)NN=Cc3ccc(O)c(OC)c3)c3ccccc32)ccc1O` [3b, 3,3′-(2-Thioxo-1H-benzo[d]imidazole-1,3(2H)-diyl)bis(N′-(4-hydroxy-3-methoxybenzylidene)propanehydrazide)] registered a melting point of 229 to 231 °C. Also, the IC50 at 24 h in series [1] amounted to 101 µM.

Molecule `COc1ccc(C=NNC(=O)CCn2c(=S)n(CCC(=O)NN=Cc3ccc(OC)c(OC)c3)c3ccccc32)cc1OC` [3c, 3,3′-(2-Thioxo-1H-benzo[d]imidazole-1,3(2H)-diyl)bis(N′-(3,4 dimethoxybenzylidene)propanehydrazide)] gave a melting point of 239 to 241 °C. The IC50 at 24 h in series [1] was found to be 112 µM. Further, the “lecithin peroxidation effect compared with 3a (in words)” value in series [2] is reported as “statistically identical effect to 3a”.

`O=C(CCn1c(=S)n(CCC(=O)NN=Cc2cccc(O)c2)c2ccccc21)NN=Cc1cccc(O)c1` [3f, 3,3′-(2-Thioxo-1H-benzo[d]imidazole-1,3(2H)-diyl)bis(N′-(3-hydroxybenzylidene)propanehydrazide)] gave a melting point of 223 to 224 °C. For the same molecule, in series [1], the IC50 at 24 h worked out at 77.7 µM.

`O=C(CCn1c(=S)n(CCC(=O)NN=Cc2ccc(O)cc2)c2ccccc21)NN=Cc1ccc(O)cc1` [3g, 3,3′-(2-Thioxo-1H-benzo[d]imidazole-1,3(2H)-diyl)bis(N′-(4-hydroxybenzylidene)propanehydrazide)] displayed a melting point of 281 to 283 °C. Further, the IC50 at 24 h in series [1] is 77.8 µM.

`O=C(CCn1c(=S)n(CCC(=O)NN=Cc2ccc(O)c(O)c2)c2ccccc21)NN=Cc1ccc(O)c(O)c1` [3j, 3,3′-(2-Thioxo-1H-benzo[d]imidazole-1,3(2H)-diyl)bis(N′-(3,4-dihydroxybenzylidene)propanehydrazide)] showed a melting point of 212 to 214 °C. Besides, in series [1], the IC50 at 24 h was found to be 187 µM. Besides, the “sample/control absorbance ratio (% of the control), lecithin peroxidation” value in series [2] is recorded as “around 40%”.

On to `O=C(CCn1c(=S)n(CCC(=O)NN=Cc2ccc(O)c(O)c2O)c2ccccc21)NN=Cc1ccc(O)c(O)c1O` [3k, 3,3′-(2-Thioxo-1H-benzo[d]imidazole-1,3(2H)-diyl)bis(N′-(2,3,4-trihydroxybenzylidene)propanehydrazide)], for which the melting point lay in the range of 279 to 280 °C. Moreover, the IC50 at 24 h in series [1] amounted to 65.3 µM. The “lecithin peroxidation effect compared with 3a (in words)” value in series [2] was “statistically identical effect to 3a”.

`COc1cccc(C=NNC(=O)CCn2c(=S)n(CCC(=O)NN=Cc3cccc(OC)c3O)c3ccccc32)c1O` [3l, 3,3′-(2-Thioxo-1H-benzo[d]imidazole-1,3(2H)-diyl)bis(N′-(2-hydroxy-3-methoxybenzylidene)propanehydrazide)] returned a melting point of 268 to 270 °C. Also, the IC50 at 24 h in series [1] was over 200 µM. Besides, the IC50 in series [3] is 200 µM.

For `COc1cccc(O)c1C=NNC(=O)CCn1c(=S)n(CCC(=O)NN=Cc2c(O)cccc2OC)c2ccccc21` [3n, 3,3′-(2-Thioxo-1H-benzo[d]imidazole-1,3(2H)-diyl)bis(N′-(2-hydroxy-6-methoxybenzylidene)propanehydrazide)], the melting point lay within 272 to 274 °C. Moreover, in series [1], the IC50 at 24 h is over 250 µM. The IC50 in series [3] is 269 µM. Moreover, the “inhibitory effect on hMAOB activity (in words)” value in series [4] is listed as “statistically significant MAO-B inhibitory effects”.

The molecule `COc1ccc(C=NNC(=O)CCn2c(=S)n(CCC(=O)NN=Cc3ccc(OC)c(O)c3)c3ccccc32)cc1O` [3o, 3,3′-(2-Thioxo-1H-benzo[d]imidazole-1,3(2H)-diyl)bis(N′-(3-hydroxy-4-methoxybenzylidene)propanehydrazide)] gave a melting point of 255 to 257 °C. For the same molecule, in series [1], the IC50 at 24 h turned out to be 73.6 µM.

The molecule `COc1cc(O)ccc1C=NNC(=O)CCn1c(=S)n(CCC(=O)NN=Cc2ccc(O)cc2OC)c2ccccc21` [3p, 3,3′-(2-Thioxo-1H-benzo[d]imidazole-1,3(2H)-diyl)bis(N′-(4-hydroxy-2-methoxybenzylidene)propanehydrazide)] displayed a melting point of 205 to 207 °C. The IC50 at 24 h in series [1] was over 250 µM. For the same molecule, the IC50 in series [3] came out at 254 µM. The “inhibitory effect on hMAOB activity (in words)” value in series [4] was “statistically significant MAO-B inhibitory effects”.

For `COc1cc(/C=N/NC(=O)CCn2c(=S)n(CCC(=O)N/N=C/c3cc(O)c(O)c(OC)c3)c3ccccc32)cc(O)c1O` [3q, 3,3′-(2-Thioxo-1H-benzo[d]imidazole-1,3(2H)-diyl)bis(N′-(3,4-hydroxy-5-methoxybenzylidene)propanehydrazide)], the melting point lay in the range of 174 to 176 °C. The IC50 at 24 h in series [1] amounted to 77.7 µM. Also, the “sample/control absorbance ratio (% of the control), lecithin peroxidation” value in series [2] was “around 40%”.

For the molecule `O=c1c(O)c(-c2ccc(O)c(O)c2)oc2cc(O)cc(O)c12` [Quercetin, reference compound], the “sample/control absorbance ratio (% of the control), lecithin peroxidation” value in series [2] was “around 25%”.

As for `Cc1c(C)c2c(c(C)c1O)CCC(C)(C(=O)O)O2` (stereo not drawn) [Trolox, reference compound], the “sample/control absorbance ratio (% of the control), lecithin peroxidation” value in series [2] was “around 25%”.
